The assay deals with T1, YAP-TEAD interaction (Homo sapiens, UniProt P28347).
T1 construct: expressed in transfected cells; host or cells: HEK293 GripTite 293 MSR (Invitrogen R795-07)
The assay is described as follows: Cell-based TEAD-GAL4 transactivation assay (luciferase reporter). The settings on record: HEK293 cells transfected with TEAD1-Gal4, YAP mutant (S127A, S397A) and luciferase reporter, compounds 0.1 μM to 30 μM; for Emax: HEK293, 24 h, read-out: TEAD-GAL4 Transactivation activity Max Act; for IC50: 24 h. Here is the method:
To identify inhibitors of YAP-TEAD interaction, a transient transactivation assay was carried out on HEK293 cell line (HEK293 GripTite™ 293 MSR (Invitrogen R795-07)) using plasmids containing the full length TEAD1 sequences, the full length YAP mutant (S127A, S397A) and a luciferase gene reporter. All expression constructs were performed into a pSG5 backbone plasmid in which the SV40 promoter was replaced by the CMV promoter. The TEAD1 construct was prepared by cloning the full-length human TEAD1 cDNA in fusion with the Gal4 DNA Binding Domain (AA 1-148) into pSG5_CMV to create the TEAD1 (FL)_hum_pSG5Gal4_CMV. The full-length YAP mutant (S127A, S397A) was also cloned into pSG5_CMV to create the YAP (FL)_hum_pSG5_mutS127A_S397A_CMV. The reporter plasmid GAL4(5×RE)_TK(−105/+56)_pGL3-Basic contains 5 copies of the GAL4 responsive element (5′-TCGGAGGACAGTACTCC-3′) upstream of the thymidine kinase (TK) promoter (−105/+56) inserted in a pGL3-Basic vector. To evaluate the selectivity of our compounds in blocking the YAP-TEAD interaction, a counter-screening protein-protein interaction transactivation assay was also established. Briefly, two other expression plasmids, the pBD-P53 which expresses the P53 (AA 72-390) in fusion with Gal4 and the pAD-SV40T which expresses the SV40 large T antigen (AA 84-708,AgT), were created. HEK293 cells were seeded at 5×10^4 cells/well in 96 well plates (assay plates) in DMEM medium containing 4.5 g/L D-glucose, 10% high inactivated (HI) fetal bovine serum 1% Glutamax, 1% non-essential amino acid and 1% sodium pyruvate and 0.5% penicillin/streptomycin at 37° C. in a humidified atmosphere of 8% CO2. After 24 h, transfections were performed using Jet-PEI as transfectant (101B-010 Polyplus Transfection), according to the instructions of the manufacturer (N/P=10) and a ratio YAP/TEAD=10 (per well: 50 ng of YAP(FL), 5 ng of TEAD(FL) and 50 ng of reporter plasmid). Six hours after cell transfection, the plates (‘assay plate’) were washed with 100 μl PBS per well and cells were treated with compounds in semi-log from 0.1 μM to 30 μM or DMSO 0.5% as control in DMEM, 4.5 g/L D-Glucose without phenol red, 0.3% BSA, 1% glutamax, 1% NEAA, 1% sodium pyruvate. 24 h later, the luciferase activity was determined after addition of 100 μl of Steady Glo™ luciferase assay system (Promega E2550) according to the manufacturer's directions. Luciferase activity in cell extracts was measured by reading luminescence using the Envision device.
The cellular response was determined by fitting the concentration response curves using a 3-parameter curve fit equation and determining the concentration that inhibited the luciferase activity by 50%.
Background: A reporter such as luciferase makes a cellular process visible.

Molecules are shown by their SMILES.

T1 sequence (P28347 whole entry): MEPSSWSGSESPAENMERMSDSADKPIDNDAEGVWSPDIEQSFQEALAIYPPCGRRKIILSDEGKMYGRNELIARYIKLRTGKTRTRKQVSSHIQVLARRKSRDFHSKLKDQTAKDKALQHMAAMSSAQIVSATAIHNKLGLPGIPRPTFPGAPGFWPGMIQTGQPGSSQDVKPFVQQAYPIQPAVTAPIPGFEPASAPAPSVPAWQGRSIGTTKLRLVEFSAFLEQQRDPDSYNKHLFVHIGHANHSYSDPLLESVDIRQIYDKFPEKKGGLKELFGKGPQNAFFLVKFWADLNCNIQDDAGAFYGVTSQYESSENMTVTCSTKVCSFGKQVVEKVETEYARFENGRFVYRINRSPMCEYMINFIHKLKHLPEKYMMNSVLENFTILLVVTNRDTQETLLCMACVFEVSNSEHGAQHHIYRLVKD

As a reminder, the IC50 is the concentration at which inhibition is half-maximal. Low values mean greater potency in that assay, high ones weaker potency in that assay. As for `CC1CCC(c2ccc3c(c2)COB3O)=NN1c1ncnc2c3c(sc12)CCCC3` (stereo not shown) [Ex122, 4-[6-(1-hydroxy-3H-2,1-benzoxaborol-5-yl)-3-methyl-4,5-dihydro-3H-pyridazin-2-yl]-6,7,8,9-tetrahydrobenzothiopheno[3,2-d]pyrimidine], the Emax turned out to be 94% and half-maximal inhibition (IC50) required 820 nM.

For the compound `CSc1nc2ncnc(N3N=C(c4ccc5c(c4)COB5O)CCC3C)c2s1` (stereo not shown) [Ex123, 7-[6-(1-hydroxy-3H-2,1-benzoxaborol-5-yl)-3-methyl-4,5-dihydro-3H-pyridazin-2-yl]-2-methylsulfanyl-thiazolo[4,5-d]pyrimidine], the Emax is 96% and the IC50 is 200 nM. Turning to `COCc1csc2c(N(C)/N=C/c3ccc4c(c3)COB4O)ncnc12` [Ex126, N-[(E)-(1-hydroxy-3H-2,1-benzoxaborol-5-yl)methyleneamino]-7-(methoxymethyl)-N-methyl-thieno[3,2-d]pyrimidin-4-amine], the Emax is 83% and the IC50 worked out at 700 nM. The matching figures for `COc1ccc2c(c1)C(N(CC(C)C)/N=C/c1ccc(B(O)O)c(OC)c1)=NS2(=O)=O` [Ex 2, [4-[(E)-[isobutyl-(5-methoxy-1,1-dioxo-1,2-benzothiazol-3-yl)hydrazono]methyl]-2-methoxy-phenyl]boronic acid]: 95% and 2280 nM.

As to `COc1cc(OC)c2c(c1)C(N(CC(C)C)/N=C/c1ccc(B(O)O)c(OC)c1)=NS2(=O)=O` [Ex 3, [4-[(E)-[(5,7-dimethoxy-1,1-dioxo-1,2-benzothiazol-3-yl)-isobutyl-hydrazono]methyl]-2-methoxy-phenyl]boronic acid], the Emax was 89% and inhibition was half-maximal at 2610 nM (IC50). The corresponding values for `CCN(/N=C/c1ccc(B(O)O)c(OC)c1)C1=NS(=O)(=O)c2ccccc21` [Ex 4, [4-[(E)-[(1,1-dioxo-1,2-benzothiazol-3-yl)-ethyl-hydrazono]methyl]-2-methoxy-phenyl] boronic acid] are 76% and 6160 nM. The corresponding values for `COCCN(/N=C/c1ccc(B(O)O)c(OC)c1)C1=NS(=O)(=O)c2ccccc21` [Ex 5, [4-[(E)-[(1,1-dioxo-1,2-benzothiazol-3-yl)-(2-methoxyethyl)-hydrazono]methyl]-2-methoxy-phenyl]boronic acid] are 67% and 7100 nM. For the compound `CC(C)CN(/N=C/c1ccc(B(O)O)c(Cl)c1)C1=NS(=O)(=O)c2ccccc21` [Ex 6, [2-chloro-4-[(E)-[(1,1-dioxo-1,2-benzothiazol-3-yl)-isobutyl-hydrazono]methyl]phenyl] boronic acid], the Emax is 62%. Consider `COc1cc(/C=N/N(CC(C)C)C2=NS(=O)(=O)c3ccc(C)cc32)ccc1B(O)O` [Ex 7, [4-[(E)-[isobutyl-(5-methyl-1,1-dioxo-1,2-benzothiazol-3-yl)hydrazono]-methyl]-2-methoxy-phenyl]boronic acid], for which the Emax is 95% and the IC50 was found to be 3430 nM.

Regarding `CC(C)CN(/N=C/c1ccc(B(O)O)cc1)C1=NS(=O)(=O)c2ccccc21` [Ex 8, [4-[(E)-[(1,1-dioxo-1,2-benzothiazol-3-yl)-isobutyl-hydrazono]methyl]-phenyl] boronic acid], the Emax amounted to 74%.

`COCCOc1ccc2c(c1)C(N(CC(C)C)/N=C/c1ccc(B(O)O)c(OC)c1)=NS2(=O)=O` [Ex 9, [4-[(E)-[isobutyl-[5-(2-methoxyethoxy)-1,1-dioxo-1,2-benzothiazol-3-yl]hydrazono]methyl]-2-methoxy-phenyl]boronic acid]: the Emax was found to be 98% and the 50% inhibitory concentration (IC50) is 2330 nM. Regarding `COc1cc(/C=N/N(CC(C)C)C2=NS(=O)(=O)c3cc(C#N)ccc32)ccc1B(O)O` [Ex 10, [4-[(E)-[(6-cyano-1,1-dioxo-1,2-benzothiazol-3-yl)-isobutyl-hydrazono]-methyl]-2-methoxy-phenyl]boronic acid], the Emax turned out to be 78% and inhibition was half-maximal at 4360 nM (IC50).

The record behind these values is patent publication US11999758B2, “Inhibitors of the YAP/TAZ-TEAD interaction and their use in the treatment of cancer” (INVENTIVA, priority 2018, dated 2024).
